# From patent US5972953A, “Brain cell protective agent” (priority 1993, dated 1999)
# Test system: nerve cells in the CAl region of the hippocampus
# Assay: Protective action from delayed neuronal death (bilateral carotid ligation ischemia, residual hippocampal nerve cells)
# Format: in vivo, mongolian jerbils
# Conditions: 3 mg/kg s.c., 30 minutes before ischemia; 1 week after 5 min ligation
# Protocol: Those compounds that provide protection from and suppress delayed neuronal death described in Example 18 are considered to be promising as preventive and therapeutic agents for ischemic brain disorders, brain nerve cell disorders and dementia, which are problems that the present invention is attempting to solve. The pharmacological activity of the compounds of the present invention was evaluated in the manner below using jerbils for the animal model.
# A midline incision was made in mongolian having body weights of 50-70 g under ether anesthesia. Blood flow through the carotid arteries on both sides was interrupted to create an ischemic state by ligating the vessels for 5 minutes. The test compound was administered subcutaneously either 30 minutes or 1 hour prior to ligation ischemia, and the rectal temperature of the animals was controlled to 37±2° C. using a heating pad or heater starting 5 minutes before to 30 minutes after ligation ischemia. 1 week after ligation, 4% neutral buffered formalin was perfused from the heart throughout the body followed by extraction of the brain. After post-fixing the extracted brain in the same solution, the tissue was prepared into sections after embedding in paraffin. The sections were stained with hematoxylin and eosin, and the number of nerve cells in the CAl region of the hippocampus over a width of 1 mm to the left and right was counted. The total number of nerve cells on the right and left sides was then used for evaluation.
row,Compound,No. of Residual Nerve Cells
1,"CC(C)CN(C(=O)Cc1ccc(Cl)c(Cl)c1)[C@H]1CC[C@@]2(O)[C@H]3Cc4ccc(O)c5c4[C@@]2(CCN3CC2CC2)[C@H]1O5 [Compound 35, 17-cyclopropylmethyl-3,14β-dihydroxy-4,5α-epoxy-6α-(N-isobutyl-3,4-dichlorophenylacetoamido)morphinan]",203.1 ± 40.1

# Same assay, conditions: conclusion from Table 2
row,Compound,inhibition of defluxion of brain nerve cells caused by ischemia
1,"CC(C)CN(C(=O)Cc1ccc(Cl)c(Cl)c1)[C@H]1CC[C@@]2(O)[C@H]3Cc4ccc(O)c5c4[C@@]2(CCN3CC2CC2)[C@H]1O5 [Compound 35, 17-cyclopropylmethyl-3,14β-dihydroxy-4,5α-epoxy-6α-(N-isobutyl-3,4-dichlorophenylacetoamido)morphinan]",significantly inhibited defluxion of brain nerve cells caused by ischemia
2,"CN(C(=O)/C=C/c1cccc(C(F)(F)F)c1)[C@@H]1CC[C@@]2(O)[C@H]3Cc4ccc(O)c5c4[C@@]2(CCN3CC2CC2)[C@H]1O5 [Compound 42, 17-cyclopropylmethyl-3,14β-dihydroxy-4,5α-epoxy-6β-(N-methyl-3-trifluoromethylcinnamamido)morphinan]",significantly inhibited defluxion of brain nerve cells caused by ischemia
3,"CN(C(=O)/C=C/c1cccc([N+](=O)[O-])c1)[C@@H]1CC[C@@]2(O)[C@H]3Cc4ccc(O)c5c4[C@@]2(CCN3CC2CC2)[C@H]1O5 [Compound 78, 17-cyclopropylmethyl-3,14β-dihydroxy-4,5α-epoxy-6β-(N-methyl-3-nitrocinnamamido)morphinan]",significantly inhibited defluxion of brain nerve cells caused by ischemia
4,"Cc1cccc(/C=C/C(=O)N(C)[C@@H]2CC[C@@]3(O)[C@H]4Cc5ccc(O)c6c5[C@@]3(CCN4CC3CC3)[C@H]2O6)c1 [Compound 46, 17-cyclopropylmethyl-3,14β-dihydroxy-4,5α-epoxy-6β-(N-methyl-3-methylcinnamamido) morphinan]",significantly inhibited defluxion of brain nerve cells caused by ischemia
5,"CN(C(=O)CCCCCc1ccccc1)[C@H]1CC[C@@]2(O)[C@H]3Cc4ccc(O)c5c4[C@@]2(CCN3CC2CC2)[C@H]1O5 [Compound 34, 17-cyclopropylmethyl-3,14β-dihydroxy-4,5α-epoxy-6α-(N-methyl-6-phenylhexanoamido)morphinan]",significantly inhibited defluxion of brain nerve cells caused by ischemia

# Test system: cultured nerve cells (cerebral cortex)
# Assay: cells
# Format: cell-based, Wistar rat
# Conditions: Rattus norvegicus, Cerebral cortex neuron, 24 h, read-out: ED50
row,Compound,EC50 [µM]
1,"CC(=O)Oc1ccc2c3c1O[C@H]1[C@H](N(C)C(=O)/C=C/c4ccccc4)CC[C@@]4(O)[C@@H](C2)N(CC2CC2)CC[C@]314 [Compound 114, 17-cyclopropylmethyl-3-acetoxy-14β-hydroxy-4,5α-epoxy-6β-(N-methylcinnamamido)morphinan]",60.3
2,"CC(C)CN(C(=O)/C=C/c1cccc(C(F)(F)F)c1)[C@@H]1CC[C@@]2(O)[C@H]3Cc4ccc(O)c5c4[C@@]2(CCN3CC2CC2)[C@H]1O5 [Compound 65, 17-cyclopropylmethyl-3,14β-dihydroxy-4,5α-epoxy-6β-(N-isobutyl-3-trifluoromethylcinnamamido)morphinan]",0.31

# Same assay, conditions: Rattus norvegicus, Cerebral cortex neuron; 10 mM glutamate, 24 hours at 37° C., LDH leakage; read-out: ED50 (the source's name)
row,Compound,EC50 [µM]
1,"CN(C(=O)/C=C/c1cccc(C(F)(F)F)c1)[C@@H]1CC[C@@]2(O)[C@H]3Cc4ccc(O)c5c4[C@@]2(CCN3CC2CC2)[C@H]1O5 [Compound 42, 17-cyclopropylmethyl-3,14β-dihydroxy-4,5α-epoxy-6β-(N-methyl-3-trifluoromethylcinnamamido)morphinan]",1.8
2,"Cc1cccc(/C=C/C(=O)N(C)[C@@H]2CC[C@@]3(O)[C@H]4Cc5ccc(O)c6c5[C@@]3(CCN4CC3CC3)[C@H]2O6)c1 [Compound 46, 17-cyclopropylmethyl-3,14β-dihydroxy-4,5α-epoxy-6β-(N-methyl-3-methylcinnamamido) morphinan]",4.42
3,"CN(C(=O)C1c2ccccc2-c2ccccc21)[C@@H]1CC[C@@]2(O)[C@H]3Cc4ccc(O)c5c4[C@@]2(CCN3CC2CC2)[C@H]1O5 [Compound 88, 17-cyclopropylmethyl-3,14β-dihydroxy-4,5α-epoxy-6β-(N-methyl-9-fluorenylamido) morphinan]",4.64
4,"C=CCN1CC[C@]23c4c5ccc(O)c4O[C@H]2[C@H](N(C)C(=O)Cc2ccc(Cl)c(Cl)c2)CC[C@@]3(O)[C@H]1C5 [Compound 93, 17-allyl-3,14β-dihydroxy-4,5α-epoxy-6β-(N-methyl-3,4-dichlorophenylacetoamido)morphinan]",1.5
5,"CN(C(=O)Cc1cccc(Cl)c1)[C@@H]1CC[C@@]2(O)[C@H]3Cc4ccc(O)c5c4[C@@]2(CCN3CC2CC2)[C@H]1O5 [Compound 85, 17-cyclopropylmethyl-3,14β-dihydroxy-4,5α-epoxy-6β-(N-methyl-3-chlorophenylacetoamido) morphinan]",4.22
6,"CN(C(=O)C#Cc1cccc(C(F)(F)F)c1)[C@@H]1CC[C@@]2(O)[C@H]3Cc4ccc(O)c5c4[C@@]2(CCN3CC2CC2)[C@H]1O5 [Compound 90, 17-Cyclopropylmethyl-3,14β-dihydroxy-4,5α-epoxy-6β-[N-methyl-3-(3-trifluoromethylphenyl)propiolamido]morphinan]",4.37
7,"CN(C(=S)NCc1ccccc1)[C@@H]1CC[C@@]2(O)[C@H]3Cc4ccc(O)c5c4[C@@]2(CCN3CC2CC2)[C@H]1O5 [Compound 106, 17-cyclopropylmethyl-3,14β-dihydroxy-4,5α-epoxy-6β-(N-methyl-N'-benzylthioureido)morphinan]",10.9
8,"CN(C(=O)Cc1c(F)c(F)c(F)c(F)c1F)[C@@H]1CC[C@@]2(O)[C@H]3Cc4ccc(O)c5c4[C@@]2(CCN3CC2CC2)[C@H]1O5 [Compound 89, 17-cyclopropylmethyl-3,14β-dihydroxy-4,5α-epoxy-6β-(N-methyl-2,3,4,5,6-pentafluorophenylacetoamido)morphinan]",6.28
9,"CN(C(=O)OCc1ccccc1)[C@H]1CC[C@@]2(O)[C@H]3Cc4ccc(O)c5c4[C@@]2(CCN3CC2CC2)[C@H]1O5 [Compound 99, 17-cyclopropylmethyl-3,14β-dihydroxy-4,5α-epoxy-6α-(N-methylbenzyloxycarbamido)morphinan]",0.4
10,"CN(C(=O)NCc1ccccc1)[C@H]1CC[C@@]2(O)[C@H]3Cc4ccc(O)c5c4[C@@]2(CCN3CC2CC2)[C@H]1O5 [Compound 104, 17-Cyclopropylmethyl-3,14β-dihydroxy-4,5α-epoxy-6α-(N-methyl-N'-benzylureido)morphinan]",0.58
